Measurements taken from US20190313680A1, “MODIFYING OR ENHANCING A FLAVOR OF FOOD AND BEVERAGE PRODUCTS” (Tate & Lyle Ingredients Americas LLC, priority 2016, published 2019).

How the values were obtained:
panellists [1] = test: Determination of the sweet-taste threshold of allulose: two-alternative forced choice test (2-AFC) against 1.5% by weight sucrose solution; type: in vivo
Source text: Described herein is a method for determining the sweetness threshold of allulose. The method is a two-alternative forced choice test against threshold levels of sweetness (ASTM Designation E2164-08: Standard Test Method for Directional Difference Test). This test is used to determine the amount of allulose at which its sweetness is less than that of the recognition threshold concentration of sucrose. The recognition threshold concentration of sucrose is 1.5% by weight in accordance with FEMA (Flavor Extracts Manufacturing Association) GRAS™ guidance.
The sweet-taste threshold of allulose was determined in accordance with FEMA (Flavor Extracts Manufacturing Association) guidance. The standard process described in this guidance requires use of a two-alternative forced choice test (2-AFC testing) against threshold levels of sweetness. FEMA guidance states that the standard for this determination is a 1.5% by weight sucrose aqueous solution (i.e. the sucrose is present in an amount of 1.5% by weight relative to the total weight of the solution). AFC tests are to be performed up to the concentration where the proposed substance exceeds the sweetness levels of sucrose at threshold levels. FEMA guidance further recommends that 30 observations be made to assess the difference in sweetness and that the differences must be found to be statistically significant to assess the effect.
The number of panellists used across replicates always exceeded the minimum of 30 observations as recommended by the FEMA sensory testing guidance. As replicates were performed, beta-binomial statistics were required to be consistent with published requirements (BI, Jian. 2006. Sensory Discrimination tests and Measurements. Chapter. 6, p. 106-129, 1st ed. Blackwell Publishing, Ames, Iowa). In such tests, when the beta-binomial term A exceeds zero, the beta-binomial is required. However, if A is zero or negative, then the panel is not over-dispersed and traditional binomial statistics can be used.
Samples were prepared on the morning of testing. Reference solutions were made as a point of comparison for all tests. The reference solutions were simple solutions of 1.5% by weight sucrose (commercial Domino brand sugar) in water. Test solutions were made from Tate & Lyle Dolcia Prima® allulose syrup standardized such that the amount of allulose in the test solutions was 1.925%, 2.310%, 2.695%, 2.8875%, or 3.080% by weight relative to the total weight of the solution.
Replicated pairs of samples at a single test concentration were chosen from those above and served on a given day. Panellists were presented products in coded 2-oz soufflé cups containing approximately 1.5 oz of liquid, and asked which sample was sweeter. Products were served at room temperature. The serving order was randomized based on a complete block design, such that the order of samples was randomized among panellists and between replicates.

panelists = test: 2-AFC flavor and preference test, cotton candy flavored water (Example 1); type: in vivo; settings: allulose in an amount below its sweetness threshold in cotton candy flavored beverage
Procedure: Cotton candy flavor samples in accordance with Table 2 below were prepared by weighing all of the ingredients into a container and blending until fully mixed.
(§1) The N&A Cotton Candy flavor was obtained from Givaudan (product code YX-953-327-3). […] DOLCIA PRIMA® was obtained from Tate & Lyle. The DOLCIA PRIMA® Allulose Syrup comprises allulose in an amount of 71% by weight on a dry solids basis. Accordingly, in the Test Sample, allulose was present at an amount of approximately 1.5% by weight relative to the total weight of the solution. The deionized water was produced by reverse osmosis.
The samples in Table 2 were subjected to 2-AFC testing. As already described herein, an AFC test is an alternative forced choice test. It asks a panelist to identify the sample that is most or least intense in a specified attribute among a given number of samples. A 2-AFC test chooses among 2 samples, a 3-AFC test chooses among 3 samples, etc. The attributes that are specified are generally attributes which panelists are likely to be able to recognize and identify a difference. A 2-AFC for sweetness would present panelists with two samples and ask them of the two which is sweeter. These differ from triangle tests or other types of tests in that an attribute is specified for the panelist to focus on. […]

panellists [2] = test: 2-AFC flavor and preference test, salted caramel flavored water (Example 2); type: in vivo; settings: allulose in an amount below its sweetness threshold in salted caramel flavored beverage
Procedure: Salted caramel flavor samples in accordance with Table 4 below were prepared by weighing all of the ingredients into a container and blending until fully mixed.
as §1, with “Salted Caramel” for “Cotton Candy”, “Flavor & Fragrance Specialities” for “Givaudan”, “YX-226E 032).” for “YX-953-327-3).”
The samples in Table 3 were subjected to 2-AFC testing.
Samples were prepared on the morning of testing. […] Standard ambient fluorescent lighting was used in sensory isolation booths, as is typical in sensory facilities. Products were served blinded and randomized in 2-oz soufflé cups identified with randomized three digit product codes.
The response questionnaires were run using Compusense Cloud. Replicates were not performed for this study. Therefore, simple binomial statistics were applied.

[3] = in accordance with FEMA GRAS guidance; cited from earlier work

Structure (SMILES)	Sweetness compared with sucrose solution (in words) (panellists [1]; 2.8875% by weight of allulose vs 1.5% by weight sucrose)	Sweetness relative to sweetness threshold (in words) (panellists [1]; 3.0800% allulose solids)	Count: number of panellists who selected the sucrose solution as sweeter (panellists [1]; allulose 1.9250 weight % in water vs 1.5% by weight sucrose, 50 possible)	Count: number of panellists who selected the sucrose solution as sweeter (panellists [1]; allulose 2.3100 weight % in water vs 1.5% by weight sucrose, 58 possible)	Count: number of panellists who selected the sucrose solution as sweeter (panellists [1]; allulose 2.6950 weight % in water vs 1.5% by weight sucrose, 60 possible)	Count: number of panellists who selected the allulose solution as sweeter (panellists [1]; allulose 2.8875 weight % in water vs 1.5% by weight sucrose, 44 possible)	Count: number of panellists who selected the allulose solution as sweeter (panellists [1]; allulose 3.0800 weight % in water vs 1.5% by weight sucrose, 60 possible)	Amount of allulose in solution considered below its sweetness threshold (panellists [1]; relative to total weight of the solution, vs 1.5% by weight sucrose) [% by weight]	Effect on cotton candy flavor (in words) (panelists)	Effect on preference for the beverage (in words) (panelists)	Effect on preference for the beverage (in words) (panellists [2])	Effect on salted caramel flavor (in words) (panellists [2])	Recognition threshold concentration [3] [% by weight]
O=C(CO)C(O)C(O)C(O)CO (stereo not shown) [allulose]	considered to be sweeter than the 1.5% by weight sucrose solution	clearly above the sweetness threshold	45	49	40	26	34	≤ 2.695	enhanced the cotton candy flavor	increased the preference for the beverage	increased the preference for the beverage	enhanced the salted caramel flavor	–
OC[C@H]1O[C@@](CO)(O[C@H]2O[C@H](CO)[C@@H](O)[C@H](O)[C@H]2O)[C@@H](O)[C@@H]1O [sucrose]	–	–	–	–	–	–	–	–	–	–	–	–	1.5
